Measurements as given in patent US5430062A, “Stilbene derivatives as anticancer agents” (priority 1993, dated 1995).
“And” between values parts separate entries of the source, which are not always exact repeats. Equal values may be shown once.

Legend:
UACC-257 melanoma = experiment: Cytotoxicity, UACC-257; type: cell-based; settings: Homo sapiens, read-out: Log10 GI50, UACC-257 (converted)
From the text: (§1) A total of 55 cell lines from the leukemia, non-small cell lung cancer, small cell lung cancer, colon cancer, CNS cancer, melanoma, ovarian cancer, and renal cancer panels were examined.

OVCAR-8 ovarian cancer = experiment: Cytotoxicity, OVCAR-8; type: cell-based; settings: Homo sapiens, read-out: Log10 GI50, OVCAR-8 (converted)
From the text: as §1

SK-MEL-2 melanoma = experiment: Cytotoxicity, SK-MEL-2; type: cell-based; settings: Homo sapiens, read-out: Log10 GI50, SK-MEL-2 (converted)
From the text: as §1

SNB-78 CNS cancer = experiment: Cytotoxicity, SNB-78; type: cell-based; settings: Homo sapiens, read-out: Log10 GI50, SNB-78 (converted)
From the text: as §1

SK-OV-3 ovarian cancer = experiment: Cytotoxicity, SK-OV-3; type: cell-based; settings: Homo sapiens, read-out: Log10 GI50, SK-OV-3 (converted)
From the text: as §1

786-0 renal cancer = experiment: Cytotoxicity, 786-0; type: cell-based; settings: Homo sapiens, read-out: Log10 GI50, 786-0 (converted)
From the text: as §1

UACC-62 melanoma = experiment: Cytotoxicity, UACC-62; type: cell-based; settings: Homo sapiens, read-out: Log10 GI50, UACC-62 (converted)
From the text: as §1

CCRF-CBM leukemia = experiment: Cytotoxicity, CCRF-CBM; type: cell-based; settings: read-out: Log10 GI50, CCRF-CBM (converted)
From the text: as §1

[1] = test system: EKCK non-small cell lung cancer; experiment: Cytotoxicity, EKCK; type: cell-based; settings: read-out: Log10 GI50, EKCK (converted)
From the text: as §1

Water solubility = type: physicochemical
[2] = test system: DMS114 small cell lung cancer; experiment: Cytotoxicity, DMS114; type: cell-based; settings: Homo sapiens, DMS-114; read-out: Log10 GI50, DMS114 (converted)
From the text: as §1

[3] = test system: NCI-H23 non-small cell lung cancer; experiment: Cytotoxicity, NCI-H23; type: cell-based; settings: Homo sapiens, read-out: Log10 GI50, NCI-H23 (converted)
From the text: as §1

[4] = test system: HOP-18 non-small cell lung cancer; experiment: Cytotoxicity, HOP-18; type: cell-based; settings: Homo sapiens, read-out: Log10 GI50, HOP-18 (converted)
From the text: as §1

SF-295 CNS cancer = experiment: Cytotoxicity, SF-295
SNB-19 CNS cancer = experiment: Cytotoxicity, SNB-19; type: cell-based; settings: Homo sapiens, read-out: Log10 GI50, SNB-19 (converted)
From the text: as §1

COLO 205 colon cancer = experiment: Cytotoxicity, COLO 205
[5] = test system: NCI-H460 non-small cell lung cancer; experiment: Cytotoxicity, NCI-H460; type: cell-based; settings: Homo sapiens, read-out: Log10 GI50, NCI-H460 (converted)
From the text: as §1

KM20L2 colon cancer = experiment: Cytotoxicity, KM20L2; type: cell-based; settings: Homo sapiens, KM-20L2; read-out: Log10 GI50, KM20L2 (converted)
From the text: as §1

[6] = test system: LXFL 529 non-small cell lung cancer; experiment: Cytotoxicity, LXFL 529; type: cell-based; settings: Homo sapiens, read-out: Log10 GI50, LXFL 529 (converted)
From the text: as §1

[7] = test system: HOP-92 non-small cell lung cancer; experiment: Cytotoxicity, HOP-92; type: cell-based; settings: Homo sapiens, read-out: Log10 GI50, HOP-92 (converted)
From the text: as §1

M14 melanoma = experiment: Cytotoxicity, M14; settings: read-out: cytotoxicity GI50, M14, 50% growth inhibition, average of two determinations, 8640 min, Hydrochloride
[8] = test system: DMS 273 small cell lung cancer; experiment: Cytotoxicity, DMS 273; settings: Hydrochloride
HL-60 (TB) leukemia = experiment: Cytotoxicity, HL-60(TB) leukemia; settings: read-out: cytotoxicity GI50, HL-60(TB); 50% growth inhibition; average of two determinations; 8640 min; Hydrochloride, 8640 min

**Q.** With `COc1cc(CNc2ccc(C)cc2)cc(OC)c1OC.Cl` [110a, 4-Methyl-N-(3,4,5-trimethoxybenzyl)aniline Hydrochloride] as the compound, how does the GI50 (UACC-257 melanoma) read?
**A.** The GI50 was over 100000 nM.

**Q.** And the GI50 (OVCAR-8 ovarian cancer)?
**A.** Its GI50 is 759 nM.

**Q.** And the GI50 (SK-MEL-2 melanoma)?
**A.** Its GI50 is 132 nM.

**Q.** What about the GI50 (SNB-78 CNS cancer) of the same compound?
**A.** The GI50 was 1100 nM.

**Q.** And the GI50 (SK-OV-3 ovarian cancer)?
**A.** Its GI50 is 269 nM.

**Q.** And the GI50 (786-0 renal cancer)?
**A.** Its GI50 is 324 nM.

**Q.** And the GI50 (UACC-62 melanoma)?
**A.** Its GI50 is 575 nM.

**Q.** What about the GI50 (CCRF-CBM leukemia) of the same compound?
**A.** Its GI50 is 282 nM.

**Q.** And the GI50 [1]?
**A.** Its GI50 is 741 nM.

**Q.** And the “water solubility (in words)” value (Water solubility)?
**A.** Its value is “water soluble”.

**Q.** What about the GI50 [2] of the same compound?
**A.** The GI50 was 427 nM.

**Q.** What about the GI50 [3] of the same compound?
**A.** Its GI50 is 407 nM.

**Q.** And the GI50 [4]?
**A.** Its GI50 is 37200 nM.

**Q.** What about the “Log10 GI50, SF-295” value (SF-295 CNS cancer) of the same compound?
**A.** The value was -6.49.

**Q.** And the GI50 (SF-295 CNS cancer; read-out: cytotoxicity GI50, SF-295, 50% growth inhibition, average of two determinations, 8640 min, Hydrochloride, 8640 min)?
**A.** Its GI50 is 233 nM.

**Q.** And the GI50 (SNB-19 CNS cancer)?
**A.** The GI50 was 295 nM.

**Q.** What about the “Log10 GI50, COLO 205” value (COLO 205 colon cancer) of the same compound?
**A.** Its value is -6.67.

**Q.** And the GI50 (COLO 205 colon cancer; read-out: cytotoxicity GI50, COLO 205, 50% growth inhibition, average of two determinations, 8640 min, Hydrochloride, 8640 min)?
**A.** Its GI50 is 219 nM.

**Q.** What about the GI50 [5] of the same compound?
**A.** Its GI50 is 214 nM.

**Q.** And the GI50 (KM20L2 colon cancer)?
**A.** Its GI50 is 251 nM.

**Q.** What about the GI50 [6] of the same compound?
**A.** The GI50 was 631 nM.

**Q.** What about the GI50 [7] of the same compound?
**A.** The GI50 was 18600 nM.

**Q.** What about the GI50 (M14 melanoma) of the same compound?
**A.** The GI50 was 292 nM.

**Q.** And the “Log10 GI50, DMS 273” value [8]?
**A.** Its value is < -7.00 and -7.03.

**Q.** What about the GI50 ([8]; read-out: cytotoxicity GI50, DMS 273, 50% growth inhibition, average of two determinations, 8640 min, 8640 min) of the same compound?
**A.** The GI50 was 104 nM.

**Q.** And the GI50 (HL-60 (TB) leukemia)?
**A.** The GI50 was 72.2 nM.
